Results published in ChEMBL document CHEMBL1201862, “PubChem BioAssay data set” (2004).
Values joined by “and” are separate entries in the source; they are usually repeats but may differ in a detail not shown here. Equal entries are not always repeated.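 Grown in 96-well plates, cells were treated for 48 hours with each compound at five concentrations. Insufficient inhibition: endpoint recorded as highest concentration tested. GI50 marks 50% less growth.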 Active and inactive are the calls of the source. No stated cut-off is given here; in the data, active = GI50 up to about 1.1 µM and inactive = higher.

What was measured:
Experiment in all cases: DTP human tumour cell line panel, 48 h
SK-MEL-28 = test system: SK-MEL-28
NCI-H23 = test system: NCI-H23
HT-29 = test system: HT-29
XF498 = test system: XF498
SN12C = test system: SN12C
SNB-75 = test system: SNB-75
TK-10 = test system: TK-10
Malme-3M = test system: Malme-3M
NCI-H226 = test system: NCI-H226
DMS-273 = test system: DMS-273
A549 = test system: A549
SF-295 = test system: SF-295
ACHN = test system: ACHN
MOLT-4 = test system: MOLT-4
RXF 631 = test system: RXF 631
OVCAR-3 = test system: OVCAR-3
EKVX = test system: EKVX
HCT-116 = test system: HCT-116
DMS-114 = test system: DMS-114
M19-MEL = test system: M19-MEL
CAKI-1 = test system: CAKI-1
CCRF-CEM = test system: CCRF-CEM
NCI-H460 = test system: NCI-H460
IGROV-1 = test system: IGROV-1
LOX IMVI = test system: LOX IMVI
OVCAR-4 = test system: OVCAR-4
SNB-19 = test system: SNB-19
SNB-78 = test system: SNB-78
M14 = test system: M14
A498 = test system: A498
UACC-62 = test system: UACC-62
DLD-1 = test system: DLD-1
OVCAR-5 = test system: OVCAR-5
HOP-62 = test system: HOP-62
COLO 205 = test system: COLO 205
UO-31 = test system: UO-31
SK-OV-3 = test system: SK-OV-3
HCT-15 = test system: HCT-15
SK-MEL-5 = test system: SK-MEL-5
KM-20L2 = test system: KM-20L2
OVCAR-8 = test system: OVCAR-8
NCI-H522 = test system: NCI-H522
RPMI-8226 = test system: RPMI-8226
UACC-257 = test system: UACC-257
HOP-92 = test system: HOP-92
KM12 = test system: KM12
U-251 = test system: U-251
SK-MEL-2 = test system: SK-MEL-2
SF-268 = test system: SF-268
HCC 2998 = test system: HCC 2998
HL-60 = test system: HL-60
K562 = test system: K562
786-0 = test system: 786-0
RXF 393 = test system: RXF 393
SW-620 = test system: SW-620
SF-539 = test system: SF-539
LXFL 529 = test system: LXFL 529
NCI/ADR-RES = test system: NCI/ADR-RES
HOP-18 = test system: HOP-18
MCF7 = test system: MCF7
SR = test system: SR

With `Cc1ccc(NC(=O)CCc2nnc(N)o2)cc1` the GI50 (SK-MEL-28) was > 100 µM (inactive), the GI50 (NCI-H23) was > 100 µM (inactive) and the GI50 (HT-29) was > 100 µM (inactive). The GI50 (XF498) was > 100 µM (inactive), the GI50 (SN12C) was > 100 µM (inactive) and the GI50 (SNB-75) was > 100 µM (inactive). For the same compound, the GI50 (TK-10) was > 100 µM (inactive), the GI50 (Malme-3M) was > 100 µM (inactive) and the GI50 (NCI-H226) was > 100 µM (inactive). For the same compound, the GI50 (DMS-273) was > 100 µM (inactive), the GI50 (A549) was > 100 µM (inactive) and the GI50 (SF-295) was > 100 µM (inactive). The GI50 (ACHN) was > 100 µM (inactive), the GI50 (MOLT-4) was > 100 µM (inactive) and the GI50 (RXF 631) was > 31.6 µM (inactive). The GI50 (OVCAR-3) was > 100 µM (inactive), the GI50 (EKVX) was > 100 µM (inactive) and the GI50 (HCT-116) was > 100 µM (inactive). For the same compound, the GI50 (DMS-114) was > 100 µM (inactive), the GI50 (M19-MEL) was > 100 µM (inactive) and the GI50 (CAKI-1) was > 100 µM (inactive). For the same compound, the GI50 (CCRF-CEM) was > 100 µM (inactive), the GI50 (NCI-H460) was > 100 µM (inactive) and the GI50 (IGROV-1) was > 100 µM (inactive). For the same compound, the GI50 (LOX IMVI) was > 100 µM (inactive), the GI50 (OVCAR-4) was > 100 µM (inactive) and the GI50 (SNB-19) was > 100 µM (inactive). For the same compound, the GI50 (SNB-78) was > 100 µM (inactive), the GI50 (M14) was > 100 µM (inactive) and the GI50 (A498) was > 100 µM (inactive). For the same compound, the GI50 (UACC-62) was > 100 µM (inactive), the GI50 (DLD-1) was > 100 µM (inactive) and the GI50 (OVCAR-5) was > 100 µM (inactive). The GI50 (HOP-62) was > 100 µM (inactive), the GI50 (COLO 205) was > 100 µM (inactive) and the GI50 (UO-31) was > 100 µM (inactive). For the same compound, the GI50 (SK-OV-3) was > 100 µM (inactive), the GI50 (HCT-15) was over 100 µM and the GI50 (SK-MEL-5) was > 100 µM (inactive). For the same compound, the GI50 (KM-20L2) was > 100 µM (inactive), the GI50 (OVCAR-8) was > 100 µM (inactive) and the GI50 (NCI-H522) was > 100 µM (inactive). For the same compound, the GI50 (RPMI-8226) was > 100 µM (inactive), the GI50 (UACC-257) was > 100 µM (inactive) and the GI50 (HOP-92) was > 100 µM (inactive). The GI50 (KM12) was > 100 µM (inactive), the GI50 (U-251) was > 100 µM (inactive) and the GI50 (SK-MEL-2) was > 100 µM (inactive). The GI50 (SF-268) was > 100 µM (inactive), the GI50 (HCC 2998) was > 100 µM (inactive) and the GI50 (HL-60) was > 67.3 µM (inactive). For the same compound, the GI50 (K562) was > 75.7 µM (inactive), the GI50 (786-0) was > 100 µM (inactive) and the GI50 (RXF 393) was > 100 µM (inactive). The GI50 (SW-620) was > 100 µM (inactive), the GI50 (SF-539) was > 100 µM (inactive) and the GI50 (LXFL 529) was > 100 µM (inactive).

For `NC(=O)C#CC(N)=O`, the GI50 (SK-MEL-28) was 7.08 µM (inactive) and 14 µM (inactive), the GI50 (NCI-H23) was 58.5 µM (inactive) and > 91.2 µM (inactive) and the GI50 (HT-29) was 20.8 µM (inactive) and 41.5 µM (inactive). The GI50 (NCI/ADR-RES) was 7.14 µM (inactive), the GI50 (SNB-75) was 30.1 µM (inactive) and 42.2 µM (inactive) and the GI50 (TK-10) was 20.8 µM (inactive). The GI50 (Malme-3M) was 13.1 µM (inactive) and 7.53 µM (inactive), the GI50 (NCI-H226) was > 100 µM (inactive) and 63 µM (inactive) and the GI50 (A549) was 73.3 µM (inactive). The GI50 (SF-295) was 13.8 µM (inactive) and 25.2 µM (inactive), the GI50 (ACHN) was > 100 µM (inactive) and the GI50 (RXF 631) was > 100 µM (inactive). The GI50 (CCRF-CEM) was 3.08 µM (inactive) and 1.94 µM (inactive), the GI50 (IGROV-1) was > 100 µM (inactive) and 67.5 µM (inactive) and the GI50 (LOX IMVI) was 14.5 µM (inactive) and 18.3 µM (inactive). The GI50 (SNB-19) was > 100 µM (inactive) and 121 µM (inactive), the GI50 (SNB-78) was 54 µM (inactive) and 47.3 µM (inactive) and the GI50 (M14) was 19.2 µM (inactive). The GI50 (A498) was > 100 µM (inactive) and 53.1 µM (inactive), the GI50 (UACC-62) was 19.4 µM (inactive) and 14.6 µM (inactive) and the GI50 (HOP-62) was > 100 µM (inactive) and 69.2 µM (inactive). For the same compound, the GI50 (UO-31) was 24 µM (inactive) and 28.5 µM (inactive), the GI50 (SK-OV-3) was > 100 µM (inactive) and 108 µM (inactive) and the GI50 (NCI-H522) was 21.2 µM (inactive) and 14.2 µM (inactive). For the same compound, the GI50 (RPMI-8226) was 2.14 µM (inactive), the GI50 (HOP-18) was 18.2 µM (inactive) and 28.2 µM (inactive) and the GI50 (MCF7) was 19.3 µM (inactive). The GI50 (SK-MEL-2) was 21.9 µM (inactive) and 13.7 µM (inactive), the GI50 (SF-268) was 60.3 µM (inactive) and 38.9 µM (inactive) and the GI50 (HCC 2998) was > 100 µM (inactive) and 58.3 µM (inactive). For the same compound, the GI50 (HL-60) was 2.52 µM (inactive) and 1.71 µM (inactive), the GI50 (K562) was 2.91 µM (inactive) and 4.66 µM (inactive) and the GI50 (786-0) was 29.2 µM (inactive). For the same compound, the GI50 (SR) was 14.6 µM (inactive), the GI50 (SF-539) was 24.4 µM (inactive) and 19.5 µM (inactive) and the GI50 (LXFL 529) was 64.9 µM (inactive).
